In patent US20070054916A1, “Aryl nitrogen-containing bicyclic compounds and methods of use” (Amgen Inc., priority 2004, published 2007):

What was measured:
LCK KD GST (225-509) = LCK KD GST (225-509) (Homo sapiens, UniProt P06239); assay: LCK Homogenous Time Resolved Flourescent (HTRF) kinase assay; conditions: average IC50 value in the human HTRF assay for the inhibition of the Lck kinase enzyme
[1] = tested on: production of TNF by monocytes activated with bacterial lipopolysaccharide (LPS); assay: Lipopolysaccharide-activated monocyte TNF production assay; type: cell-based; conditions: Homo sapiens, read-out: IC50 values in the monocyte assay (LPS induced TNF release)
Summary of the method: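 Adherent human PBMC-derived monocytes (~70%) in DMEM/2% FCS were pre-incubated 60 min with nine two-fold compound dilutions, then stimulated with E. coli K532 LPS (added as 30 ng/ml solution) for 4 h at 37 °C. Supernatant TNF-α was measured by sandwich ELISA. IC50 was taken from a polynomial fit of TNF versus compound concentration.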

LCK KD GST (225-509), sequence (P06239 225-509): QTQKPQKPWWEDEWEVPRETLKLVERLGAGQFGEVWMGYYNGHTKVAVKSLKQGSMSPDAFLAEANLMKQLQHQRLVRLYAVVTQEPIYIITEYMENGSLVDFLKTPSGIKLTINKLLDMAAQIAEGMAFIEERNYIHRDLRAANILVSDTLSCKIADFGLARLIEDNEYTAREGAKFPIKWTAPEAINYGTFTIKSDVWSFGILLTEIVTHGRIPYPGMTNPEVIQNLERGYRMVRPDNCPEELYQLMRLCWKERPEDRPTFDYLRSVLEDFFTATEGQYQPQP

SMILES	IC50 (LCK KD GST (225-509)) [nM]	IC50 [1] [nM]
CNc1ncc2cc(-c3cc(C(=O)Nc4ccc(F)c(C(F)(F)F)c4)ccc3C)ccc2n1 [Example 16, N-(4-fluoro-3-(trifluoromethyl)phenyl)-4-methyl-3-(2-(methylamino)-6-quinazolinyl)benzamide]	≤ 1000	≤ 25000
CN(C)c1cccc2c(S(=O)(=O)Nc3cccc(-c4ccc5nc(N)ncc5c4)c3)cccc12 [Example 55, N-(3-(2-amino-6-quinazolinyl)phenyl)-5-(dimethylamino)-1-naphthalenesulfonamide]	≤ 1000	≤ 25000
Cc1ccc(C(=O)Nc2cccc(NC(=O)CN3CCOCC3)c2C)cc1-c1ccc2nc(N)ncc2c1 [Example 56, 3-(2-Amino-6-quinazolinyl)-4-methyl-N-(2-methyl-3-((4-morpholinylacetyl)amino)phenyl)benzamide]	≤ 1000	≤ 25000
COc1c(Br)cc(-c2ccc3nc(N)ncc3c2)cc1C(=O)Nc1cc(C(F)(F)F)ccc1N(C)CCCN(C)C [Example 103, 5-(2-amino-6-quinazolinyl)-3-bromo-N-(2-((3-(dimethylamino)propyl)(methyl)amino)-5-(trifluoromethyl)phenyl)-2-(methyloxy)benzamide]	≤ 1000	
COc1c(C(=O)Nc2cccc(C(F)(F)F)c2)cc(-c2ccc3nc(N)ncc3c2)c(OC)c1OC [Example 109, 5-(2-amino-6-quinazolinyl)-2,3,4-tris(methyloxy)-(trifluoromethyl)-N-(3-phenyl)benzamide]	≤ 1000	≤ 25000
COc1c(C(=O)Nc2cc(C(F)(F)F)ccc2N(C)CCCN(C)C)cc(-c2ccc3nc(N)ncc3c2)c(OC)c1OC [Example 110, 5-(2-amino-6-quinazolinyl)-N-(2-((3-(dimethylamino)propyl)methyl)amino-5-(trifluoromethyl)phenyl)-2,3,4-tris(methyloxy)benzamide]	≤ 1000	≤ 25000
Cc1ccc(C(=O)NCCN(C)C)cc1-c1ccc2nc(N)ncc2c1 [Example 134, 3-(2-amino-6-quinazolinyl)-N-(2-(dimethylamino)ethyl)-4-methylbenzamide]	≤ 25000	
CNc1ncc2cc(-c3cccc(C(=O)Nc4cccc(OC(F)(F)F)c4)c3C)cnc2n1 [Example 183, 2-methyl-3-(2-(methylamino)pyrido [2,3-d]pyrimidin-6-yl)-N-(3-((trifluoromethyl)oxy)phenyl)benzamide]	≤ 1000	≤ 25000
CNc1ncc2cc(-c3cc(C(=O)Nc4ccc(OC)c(C(F)(F)F)c4)ccc3C)cnc2n1 [Example 184, 4-methyl-3-(2-(methylamino)pyrido [2,3-d]pyrimidin-6-yl)-N-(4-(methyloxy)-3-(trifluoromethyl)phenyl)benzamide]	≤ 1000	≤ 25000
Cc1ccc(C(=O)Nc2cc(C(F)(F)F)ccc2CN2CCN(C)CC2)cc1-c1ccc2ncnc(N)c2c1 [Example 383, 3-(4-amino-6-quinazolinyl)-4-methyl-N-(2-((4-methyl-1-piperazinyl)methyl)-5-(trifluoromethyl)phenyl)benzamide]	≤ 1000	
Cc1ccc(C(=O)Nc2cc(C(F)(F)F)ccc2N(C)C)cc1-c1ccc2ncnc(N)c2c1 [Example 385, 3-(4-amino-6-quinazolinyl)-N-(2-(dimethylamino)-5-(trifluoromethyl)phenyl)-4-methylbenzamide]	≤ 1000	
CC1(C)CC(=O)Nc2cc(NC(=O)c3cc(-c4ccc5nc(N)ncc5c4)ccc3F)ccc21 [Example 412]	≤ 1000	
CC(C)c1cccc(C(=O)Nc2cc(-c3ccc4nc(N)ncc4c3)cc(C(F)(F)F)c2)c1 [Example 512, N-(3-(2-amino-6-quinazolinyl)-5-(trifluoromethyl)phenyl)-3-(1-methylethyl)benzamide]	≤ 1000	
Nc1ncnc2ccc(-c3cccc(NC(=O)c4cccc(C(F)(F)F)c4)c3)cc12 [Example 513, N-(3-(4-amino-6-quinazolinyl)phenyl)-3-(trifluoromethyl)benzamide]	≤ 1000	
